The target in one test is p38a/MK2 (Homo sapiens (Human), UniProt P49137+Q16539). Put plainly: p38a/MK2 biochemical assay: activation of MK2 by p38, FITC-HSP27 peptide phosphorylation (IMAP FP). The following applies: 10-point 1:3 dilution, 60 pM active p38a, 1 nM inactive MK2, 10 μM ATP, 2 h incubation. As to the method:
(§1) Expression vectors of the recombinant MK2 and PRAK kinases were constructed by cloning of the codon optimized gene sequences of MK2 (Uniprot ID P49137, amino acid fragment F46-H400), or PRAK (Uniprot ID Q81W41, amino acid fragment M1-Q471) into pGEX-4T1 (GE) for over expression of these kinases with N-terminal GST-tag. Protein expression was carried out in E. coli BL21 by growing the hosts in TB medium, induction of protein expression with 0.5 mM IPTG at approximate 0.8 OD600, and incubation of the cultures at 18° C. for 14-20 hours afterwards. The harvested cells were resuspended in […] of Lysis buffer (50 mM Tris-HCl, pH 8.0, 500 mM NaCl, 1 mM DTT, 5% glycerol, and 1 mM PMSF) per gram of wet cell mass and homogenized at 4° C. in a microfluidizer (ATS, Suzhou, China) at 14,000 psi pressure, 3 passes. The cell lysates were clarified by centrifugation and the supernatants containing the GST-fusion proteins were purified by affinity chromatography using GSH-Sepharose (GE) gravity flow columns pre-equilibrated in Buffer A (50 mM Tris-HCl, pH 8.0, 500 mM NaCl, 1 mM DTT, and 5% glycerol). After thorough washing of the columns with Buffer A, the bound GST-proteins were eluted by Buffer B (50 mM Tris, pH 8.0, 500 mM NaCl, 1 mM DTT, 5% glycerol, 10 mM glutathione), followed by size-exclusion purification on Superdex 200 column equilibrated in Buffer A. The purified proteins were concentrated to approximately 1 mg/ml and stored at −80° C.
This study evaluates the inhibitory potency of invention compound on p38/MK2 pathway vs p38/PRAK pathway. More specially the compound concentration (IC50) was determined that inhibited half of the maximal activation of MK2 or PRAK by p38. MK2 activation study was set up without or with a serial of 10-point 1:[…], and PRAK activation study was set up without or with a serial of 10-point 1:3 dilution of invention compound at top dose of 300 μM. The MK2 and PRAK activity were determined by the phosphorylation level of HSP27 peptide conjugated with FITC.
(§2) After 2 h incubation of the reaction mixture with various concentration of invention compound (200 nL), 60 μL 1×IMAP solution Mixture (Molecular Devices, Cat R8127) was added to the reaction mixture and incubated for another half hour. The signal was then read by Synergy™ Neo2 Multi-Mode Microplate Reader with filter setting (Ex/Em=485 nm/FITC FP-P pol 528 nm & FITC FP-S pol 528 nm)
(§3) The signal was then normalized to vehicle control and fitted in Xfit to generate IC50. The selectivity of MK2 over PRAK was calculated by the formular Selectivity=IC50 of PRAK/IC50 of MK2.

The target in another test is p38a/PRAK (Homo sapiens (Human), UniProt Q16539). Kind of test: p38a/PRAK biochemical assay: activation of PRAK by p38, FITC-HSP27 peptide phosphorylation (IMAP FP). The following applies: 10-point 1:3 dilution, top dose 300 μM; 60 pM active p38a, 1 nM inactive PRAK, 10 μM ATP, 2 h incubation; read-out: p38a/PRAK Enzyme pIC50 (converted). As to the method: as §1
Sequence of p38a/PRAK (Q16539 whole entry): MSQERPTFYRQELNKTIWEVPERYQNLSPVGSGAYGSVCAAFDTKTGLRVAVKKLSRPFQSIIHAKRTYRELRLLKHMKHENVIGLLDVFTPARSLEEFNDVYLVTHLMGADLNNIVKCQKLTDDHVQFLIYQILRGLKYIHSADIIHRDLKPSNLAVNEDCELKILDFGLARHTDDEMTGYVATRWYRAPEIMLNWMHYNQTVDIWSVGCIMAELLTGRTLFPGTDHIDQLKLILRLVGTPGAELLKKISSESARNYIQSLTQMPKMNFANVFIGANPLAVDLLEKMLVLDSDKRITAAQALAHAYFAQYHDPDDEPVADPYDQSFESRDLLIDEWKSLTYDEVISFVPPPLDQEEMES
This study evaluates the inhibitory potency of invention compound on p38/MK2 pathway vs p38/PRAK pathway. More specially the compound concentration (IC50) was determined that inhibited half of the maximal activation of MK2 or PRAK by p38. MK2 activation study was set up without or with a serial of 10-point 1:3 dilution of invention compound at top dose of […], and PRAK activation study was set up without or with a serial of 10-point 1:3 dilution of invention compound at top dose of 300 μM. The MK2 and PRAK activity were determined by the phosphorylation level of HSP27 peptide conjugated with FITC.
as §2, §3

[1] abbreviates: top dose 1 μM, read-out: p38a/MK2 (1 μM) Enzyme pIC50 (converted).

Like-named read-outs stand apart in the source and are kept apart here.

Sequence of p38a/MK2 (P49137 46-400): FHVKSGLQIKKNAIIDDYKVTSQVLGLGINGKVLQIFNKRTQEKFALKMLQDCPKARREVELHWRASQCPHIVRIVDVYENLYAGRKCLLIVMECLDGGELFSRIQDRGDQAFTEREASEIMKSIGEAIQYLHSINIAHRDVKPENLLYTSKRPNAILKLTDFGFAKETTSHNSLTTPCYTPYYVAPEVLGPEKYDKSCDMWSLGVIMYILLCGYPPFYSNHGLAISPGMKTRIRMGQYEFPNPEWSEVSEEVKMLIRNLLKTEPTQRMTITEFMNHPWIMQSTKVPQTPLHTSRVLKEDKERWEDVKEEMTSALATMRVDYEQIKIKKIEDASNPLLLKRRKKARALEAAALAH
Sequence of p38a/MK2 (Q16539 whole entry, the tested form may be a part): as the sequence (Q16539 whole entry) above

`Cc1cnc(-c2cccc(C(C)(C)O)n2)c(F)c1-n1c(C)cc(OCc2ncc(F)cc2F)c(Cl)c1=O` (single isomer, unassigned) [Example 63A, rel-3-chloro-4-[(3,5-difluoropyridin-2-yl)methoxy]-1-[3-fluoro-6′-(2-hydroxypropan-2-yl)-5-methyl-[2,2′-bipyridin]-4-yl]-6-methylpyridin-2-one]: the IC50 on p38a/MK2 (setting [1]) is greater than 0.1 µM; on p38a/PRAK, greater than 316 µM.

`Cc1c(-n2c(C)cc(OCc3ncc(F)cc3F)c(Cl)c2=O)ccnc1-n1ccc(C(C)(C)O)n1` (single isomer, unassigned) [Example 52A, rel-3-chloro-4-((3,5-difluoropyridin-2-yl)methoxy)-2′-(3-(2-hydroxypropan-2-yl)-1H-pyrazol-1-yl)-3′,6-dimethyl-2H-[1,4′-bipyridin]-2-one]: the figures for the IC50 at p38a/MK2 (setting [1]) and at p38a/PRAK were greater than 1 µM and greater than 316 µM, respectively.

Turning to `Cc1cnc(-c2cccc(C(C)(C)O)n2)c(F)c1-n1c(C)cc(OCc2ncc(F)cc2F)c(Cl)c1=O` (single isomer, unassigned) [Example 63B, rel-3-chloro-4-[(3,5-difluoropyridin-2-yl)methoxy]-1-[3-fluoro-6′-(2-hydroxypropan-2-yl)-5-methyl-[2,2′-bipyridin]-4-yl]-6-methylpyridin-2-one], the IC50 was 0.000316 µM on p38a/MK2 (setting [1]) and 0.316 µM at p38a/PRAK.

Turning to `Cc1cnc(-c2ccnc(C(C)(C)O)n2)c(C)c1-n1c(C)cc(OCc2ncc(F)cc2F)c(Cl)c1=O` (single isomer, unassigned) [Example 49B, rel-3-chloro-4-((3,5-difluoropyridin-2-yl)methoxy)-2′-(2-(2-hydroxypropan-2-yl)pyrimidin-4-yl)-3′,5′,6-trimethyl-2H-[1,4′-bipyridin]-2-one], the results for the IC50 at p38a/MK2 (setting [1]) and on p38a/PRAK were greater than 1 µM and greater than 316 µM, respectively.

Take `Cc1cnc(-c2ccnc(C(C)(C)O)n2)cc1-c1c(C)cc(OCc2ncc(F)cc2F)c(Cl)c1F` [Example 1, 2-[4-(4-{3-chloro-4-[(3,5-difluoropyridin-2-yl)methoxy]-2-fluoro-6-methylphenyl}-5-methylpyridin-2-yl)pyrimidin-2-yl]propan-2-ol]: on p38a/MK2 (top dose 10 μM), the “p38a/MK2 (10 μM) Enzyme pIC50” value turned out to be 5.2. In addition, the IC50 at p38a/PRAK was greater than 316 µM.

For `Cc1cnc(-n2nc(C(C)(C)O)cc2C2CC2)cc1-n1c(C)cc(OCc2ncc(F)cc2F)c(Cl)c1=O` (single isomer, unassigned) [Example 20A, rel-3-chloro-2′-[5-cyclopropyl-3-(2-hydroxypropan-2-yl)pyrazol-1-yl]-4-[(3,5-difluoropyridin-2-yl)methoxy]-5′,6-dimethyl-[1,4′-bipyridin]-2-one], the IC50 at p38a/PRAK was 5.01 µM.

For `Cc1cnc(-n2ccc(C(C)(C)O)n2)c(C)c1-n1c(C)cc(OCc2ncc(F)cc2F)c(Cl)c1=O` (single isomer, unassigned) [Example 50A, rel-3-chloro-4-[(3,5-difluoropyridin-2-yl)methoxy]-2′-[3-(2-hydroxypropan-2-yl)pyrazol-1-yl]-3′,5′,6-trimethyl-[1,4′-bipyridin]-2-one], the figures for the IC50 on p38a/MK2 (setting [1]) and at p38a/PRAK were 0.0126 µM and 10 µM, respectively.

For `[2H]C([2H])(Oc1cc(C)n(-c2c(C)cnc(-c3cccc(C(C)(C)O)[n+]3[O-])c2F)c(=O)c1Cl)c1ncc(F)cc1F` [Example 68A, rel-4′-{3-chloro-4-[(3,5-difluoropyridin-2-yl) (2H2)methoxy]-6-methyl-2-oxopyridin-1-yl}-3′-fluoro-6-(2-hydroxypropan-2-yl)-5′-methyl-[2,2′-bipyridin]-1-ium-1-olate], the IC50 is greater than 0.1 µM at p38a/MK2 (setting [1]) and greater than 316 µM at p38a/PRAK.

Regarding `Cc1cnc(-n2ccc(C(C)(C)O)n2)c(F)c1-n1c(C)cc(OCc2ncc(F)cc2F)c(Cl)c1=O` (single isomer, unassigned) [Example 54A, rel-3-chloro-4-((3,5-difluoropyridin-2-yl)methoxy)-3′-fluoro-2′-(3-(2-hydroxypropan-2-yl)-1H-pyrazol-1-yl)-5′,6-dimethyl-2H-[1,4′-bipyridin]-2-one], the IC50 is greater than 1 µM on p38a/MK2 (setting [1]) and greater than 316 µM on p38a/PRAK.

`Cc1cnc(-n2nc(C(C)(C)O)cc2C)cc1-n1c(C)cc(OCc2ncc(F)cc2F)c(Cl)c1=O` (single isomer, unassigned) [Example 19B, rel-3-chloro-4-((3,5-difluoropyridin-2-yl)methoxy)-2′-(3-(2-hydroxypropan-2-yl)-5-methyl-1H-pyrazol-1-yl)-5′,6-dimethyl-2H-[1,4′-bipyridin]-2-one]: the IC50 at p38a/PRAK was greater than 316 µM.

As to `[2H]C([2H])(Oc1cc(C)n(-c2c(C)cnc(-c3ccnc(C(C)(C)O)c3F)c2F)c(=O)c1Cl)c1ncc(F)cc1F` (single isomer, unassigned) [Example 65A, rel-3-chloro-1-[3,3′-difluoro-2′-(2-hydroxypropan-2-yl)-5-methyl-[2,4′-bipyridin]-4-yl]-4-[(3,5-difluoropyridin-2-yl)(2H2)methoxy]-6-methylpyridin-2-one], the IC50 on p38a/MK2 (setting [1]) was 0.00398 µM; on p38a/PRAK it was 0.2 µM.

For the compound `Cc1cnc(-c2ccnc(C(C)(C)O)n2)cc1-n1c(C)cc(OCc2cc(C(F)F)ccn2)c(Cl)c1=O` (single isomer, unassigned) [Example 27A, rel-3-chloro-4-{[4-(difluoromethyl)pyridin-2-yl]methoxy}-2′-[2-(2-hydroxypropan-2-yl)pyrimidin-4-yl]-5′,6-dimethyl-[1,4′-bipyridin]-2-one], the IC50 on p38a/MK2 (top dose 10 μM, read-out: p38a/MK2 (10 μM) Enzyme pIC50 (converted)) was 0.0631 µM; at p38a/PRAK, 126 µM.

As to `Cc1nn(-c2ccnc(C(C)(C)O)n2)cc1-n1c(C)cc(OCc2ncc(F)cc2F)c(Cl)c1=O` [Example 30, 3-chloro-4-[(3,5-difluoropyridin-2-yl)methoxy]-1-{1-[2-(2-hydroxypropan-2-yl)pyrimidin-4-yl]-3-methylpyrazol-4-yl}-6-methylpyridin-2-one], the IC50 on p38a/PRAK was 25.1 µM.

As for `Cc1cnnc(COc2cc(C)n(-c3cc(-c4ccnc(C(C)(C)O)n4)ncc3C)c(=O)c2Cl)c1` (single isomer, unassigned) [Example 28B, rel-3-chloro-2′-[2-(2-hydroxypropan-2-yl)pyrimidin-4-yl]-5′,6-dimethyl-4-[(5-methylpyridazin-3-yl)methoxy]-[1,4′-bipyridin]-2-one], the IC50 at p38a/PRAK is greater than 316 µM.

Regarding `Cc1cnc(-n2nc(C(C)(C)O)cc2C)cc1-n1c(C)cc(OCc2ncc(F)cc2F)c(Cl)c1=O` (single isomer, unassigned) [Example 19A, rel-3-chloro-4-((3,5-difluoropyridin-2-yl)methoxy)-2′-(3-(2-hydroxypropan-2-yl)-5-methyl-1H-pyrazol-1-yl)-5′,6-dimethyl-2H-[1,4′-bipyridin]-2-one], the IC50 at p38a/PRAK was 5.01 µM.

Take `Cc1cnc(-n2nc(C(C)(C)O)cc2C2CC2)cc1-n1c(C)cc(OCc2ncc(F)cc2F)c(Cl)c1=O` (single isomer, unassigned) [Example 20B, rel-3-chloro-2′-[5-cyclopropyl-3-(2-hydroxypropan-2-yl)pyrazol-1-yl]-4-[(3,5-difluoropyridin-2-yl)methoxy]-5′,6-dimethyl-[1,4′-bipyridin]-2-one]: the IC50 on p38a/PRAK is greater than 316 µM.

The values are drawn from patent US11680056B2, “MK2 inhibitors and uses thereof” (Xinthera, Inc., priority 2021, dated 2023).
